The source of these data is patent US20040121489A1, “COX-2 mediated altered prostaglandin balance in diabetes complications” (priority 2002, published 2004).

The target in one assay is T1, COX-2 (Mus musculus, UniProt Q05769).
T1 construct: cyclooxygenase 2 and interleukin-1 alpha expression in SENCAR mouse epidermis
T1 sequence (Q05769 18-604): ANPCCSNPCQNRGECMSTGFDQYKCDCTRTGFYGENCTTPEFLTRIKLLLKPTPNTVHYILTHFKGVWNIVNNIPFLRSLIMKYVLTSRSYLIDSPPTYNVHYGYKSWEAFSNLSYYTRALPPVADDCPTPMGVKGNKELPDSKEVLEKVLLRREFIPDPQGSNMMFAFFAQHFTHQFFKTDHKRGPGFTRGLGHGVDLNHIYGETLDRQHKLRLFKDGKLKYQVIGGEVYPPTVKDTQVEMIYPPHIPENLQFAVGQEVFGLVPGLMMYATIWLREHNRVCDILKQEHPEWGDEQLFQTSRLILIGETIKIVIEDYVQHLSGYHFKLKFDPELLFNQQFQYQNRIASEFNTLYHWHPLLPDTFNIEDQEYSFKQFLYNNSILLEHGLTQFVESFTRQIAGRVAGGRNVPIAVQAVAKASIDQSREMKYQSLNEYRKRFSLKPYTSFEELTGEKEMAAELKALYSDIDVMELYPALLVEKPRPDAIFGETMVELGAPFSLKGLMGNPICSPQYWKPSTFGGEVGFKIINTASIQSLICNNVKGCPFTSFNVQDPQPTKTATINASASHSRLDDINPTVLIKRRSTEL
The following applies: cited from Zhao et al., Mol. Carcinog. 1999; cited from earlier work.

The test system of the next assay is urinary PGE2/TXB2 ratio. Nature of the assay: Selective COX-2 and COX-1 blockage in mice, urinary PGE2/TXB2 ratio pre- and post-intervention. The format is in vivo, mice (NOD, B6, B6.NODc1t).

Description for urinary PGE2/TXB2 ratio: Urine was directly aliquoted and stored at −70° C. until assay. Enzyme immunoassay was used to particularly detect renal derived metabolites and the systemic derived metabolites. […] The EIA kits utilize a competitive binding assay between unlabeled compound from the specimen sample and a fixed quantity of peroxidase labeled compound for a limited number of binding sites on a compound specific antibody. Assays were performed in 96 well microtitre plates with 50 μL specimen. The unknown sample was bound to appropriate antiserum and conjugate and optical density read at 450 nm using a BIORAD 3550 UV microplate reader. Raw optical density data was converted to percent binding by plotting the percent binding B/Bo as a function of the log compound concentration. Concentration of the prostanoid compound was then directly calculated in pg/well. This concentration was then converted to pg/mL and subsequently to pg/mg urinary creatinine to adjust for urinary concentration, body size and age. The final ratios of PGE2/TXB2 or PGE2+6kPGF1α/TXB2 were then directly calculated.
Selective COX-2 and COX-1 blockage were analyzed in three groups of mice—NOD mice, B6 mice, and a congenic B6.NODc1t strain.
Eight age-matched female 6-8 week old mice of each strain (NOD, B6, and C1t) were divided into two groups.

In the case of `COc1cc(C2Oc3cc([C@H]4Oc5cc(O)cc(O)c5C(=O)[C@@H]4O)ccc3OC2CO)ccc1O` (stereo partly drawn) [silybinin], the “COX-2 inhibition relative to COX-1 inhibition” value on COX-2 was “significant COX-2 inhibition”. Regarding `CS(=O)(=O)Nc1ccc([N+](=O)[O-])cc1OC1CCCCC1` [NS-398], the “increase in the urinary PGE2/TXB2 ratio” value in the assay on urinary PGE2/TXB2 ratio (10 mg/kg/d i.p. daily for 14 days, all the three strains of mice (NOD, B6, B6.NODc1t), female 6-8 week old) is on record as 3-7 fold. The “difference in urinary PGE2/TXB2 (Dunn's simultaneous multiple comparison test)” value with urinary PGE2/TXB2 ratio (NOD and B6.NODc1t group, COX-2 blocker 10 mg/kg/d i.p. 14 days, pre- vs post-intervention) is given as “significant”.
